From BindingDB's records for doi:10.1016/j.bioorg.2016.07.002 (Universiti Teknologi Mara, 2016) come the findings set out here.

The assay has as its target T1, Beta-glucuronidase (Bos taurus, UniProt A3KMY8).
T1 sequence (A3KMY8 whole entry): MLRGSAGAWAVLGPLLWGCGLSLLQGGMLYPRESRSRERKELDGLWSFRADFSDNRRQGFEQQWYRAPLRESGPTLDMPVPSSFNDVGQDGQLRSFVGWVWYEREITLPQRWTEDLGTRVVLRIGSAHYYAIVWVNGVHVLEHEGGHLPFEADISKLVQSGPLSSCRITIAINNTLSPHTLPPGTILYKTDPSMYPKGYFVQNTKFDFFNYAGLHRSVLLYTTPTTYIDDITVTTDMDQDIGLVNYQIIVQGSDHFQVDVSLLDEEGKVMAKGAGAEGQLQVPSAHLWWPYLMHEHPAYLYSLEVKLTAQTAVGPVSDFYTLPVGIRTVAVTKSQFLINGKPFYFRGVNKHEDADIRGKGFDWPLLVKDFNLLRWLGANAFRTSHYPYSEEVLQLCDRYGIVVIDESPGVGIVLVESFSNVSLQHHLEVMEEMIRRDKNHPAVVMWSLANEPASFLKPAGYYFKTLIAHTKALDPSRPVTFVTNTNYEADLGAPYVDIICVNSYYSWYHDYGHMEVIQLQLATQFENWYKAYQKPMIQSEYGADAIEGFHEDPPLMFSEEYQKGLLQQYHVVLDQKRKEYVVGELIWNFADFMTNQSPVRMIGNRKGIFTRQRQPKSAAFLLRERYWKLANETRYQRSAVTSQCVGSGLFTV
Kind of assay: β-Glucuronidase assay. On the procedure:
[…] was the volume of total reaction. Reaction mixture containing 5 µL of test compound solution, 185 µL of 0.1 M acetate buffer and 10 µL of enzyme solution wereincubated for 30 min at 37 °C. […] Experiments were performed for triplicate. To avoid precipitation compound concentration were decreased and the volume of reactionwas high (200 µL).
With `O=[N+]([O-])c1ccccc1S(=O)(=O)Nc1ccccc1SSc1ccccc1NS(=O)(=O)c1ccccc1[N+](=O)[O-]` [N,N'-(disulfanediylbis(2,1-phenylene))bis(2-nitrobenzenesulfonamide) (10)], half-maximal inhibition (IC50) required 14.2 µM.

`O=S(=O)(Nc1ccccc1SSc1ccccc1NS(=O)(=O)c1cc(Cl)ccc1Cl)c1cc(Cl)ccc1Cl` [N,N'-(disulfanediylbis(2,1-phenylene))bis(2,5-dichlorobenzenesulfonamide) (18)] came in with an IC50 of 16.2 µM.

The molecule `O=S(=O)(Nc1ccccc1SSc1ccccc1NS(=O)(=O)c1ccccc1Cl)c1ccccc1Cl` [N,N'-(disulfanediylbis(2,1-phenylene))bis(2-chlorobenzenesulfonamide) (1)] yielded an IC50 of 8.18 µM.

In turn, `COc1ccc(S(=O)(=O)Nc2ccccc2SSc2ccccc2NS(=O)(=O)c2ccc(OC)cc2)cc1` [N,N'-(disulfanediylbis(2,1-phenylene))bis(4-methoxybenzenesulfonamide) (20)] displayed an IC50 of 56.3 µM.

`O=S(=O)(Nc1ccccc1SSc1ccccc1NS(=O)(=O)c1ccccc1Br)c1ccccc1Br` [N,N'-(disulfanediylbis(2,1-phenylene))bis(2-bromobenzenesulfonamide) (7)] displayed an IC50 of 58.5 µM.

For the molecule `O=S(=O)(Nc1ccccc1SSc1ccccc1NS(=O)(=O)c1cccc(Cl)c1)c1cccc(Cl)c1` [N,N'-(disulfanediylbis(2,1-phenylene))bis(3-chlorobenzenesulfonamide) (2)], 25 µM corresponded to half-maximal inhibition (IC50).

Regarding `O=S(=O)(Nc1ccccc1SSc1ccccc1NS(=O)(=O)c1cccc(Br)c1)c1cccc(Br)c1` [N,N'-(disulfanediylbis(2,1-phenylene))bis(3-bromobenzenesulfonamide) (9)], the IC50 turned out to be 88.2 µM.

Take `O=S(=O)(Nc1ccccc1SSc1ccccc1NS(=O)(=O)c1ccccc1F)c1ccccc1F` [N,N'-(disulfanediylbis(2,1-phenylene))bis(2-fluorobenzenesulfonamide) (4)]: inhibition was half-maximal at 6.23 µM (IC50).

Consider `O=S(=O)(Nc1ccccc1SSc1ccccc1NS(=O)(=O)c1ccc(Cl)cc1Cl)c1ccc(Cl)cc1Cl` [N,N'-(disulfanediylbis(2,1-phenylene))bis(2,4-dichlorobenzenesulfonamide) (17)], for which the IC50 was determined as 11.3 µM.

In turn, `O=[N+]([O-])c1cccc(S(=O)(=O)Nc2ccccc2SSc2ccccc2NS(=O)(=O)c2cccc([N+](=O)[O-])c2)c1` [N,N'-(disulfanediylbis(2,1-phenylene))bis(3-nitrobenzenesulfonamide) (12)] had an IC50 of 59.3 µM.

`O=S(=O)(Nc1ccccc1SSc1ccccc1NS(=O)(=O)c1cccc(F)c1)c1cccc(F)c1` [N,N'-(disulfanediylbis(2,1-phenylene))bis(3-fluorobenzenesulfonamide) (5)] had an IC50 of 34.5 µM.

On to `O=S(=O)(Nc1ccccc1SSc1ccccc1NS(=O)(=O)c1ccc(F)cc1)c1ccc(F)cc1` [N,N'-(disulfanediylbis(2,1-phenylene))bis(4-fluorobenzenesulfonamide) (6)], for which the IC50 worked out at 13.2 µM.

`O=[N+]([O-])c1ccc(S(=O)(=O)Nc2ccccc2SSc2ccccc2NS(=O)(=O)c2ccc([N+](=O)[O-])cc2)cc1` [N,N'-(disulfanediylbis(2,1-phenylene))bis(4-nitrobenzenesulfonamide) (11)] had an IC50 of 28.4 µM.

On to `Cc1ccccc1S(=O)(=O)Nc1ccccc1SSc1ccccc1NS(=O)(=O)c1ccccc1C` [N,N'-(disulfanediylbis(2,1-phenylene))bis(2-methylbenzenesulfonamide) (14)], for which half-maximal inhibition (IC50) was put at 34.3 µM.

By IC50 is commonly meant the concentration that inhibits the measured activity by half. A low value points to greater potency.
